Tests used:
[1] = molecular target: T1, P70S6K (T412E mutant) (Homo sapiens, UniProt P23443, T412E); experiment: P70S6K enzyme assay; assay type: biochemical; details: 24 μM ATP, 90 min at 25° C., mobility shift (Caliper)
T1 construct: purchased Millipore
Procedure: P70S6K inhibitor compounds were diluted and plated in 96 well plates. A reaction mixture including the following components was then added to the compound plate to initiate the enzyme reaction; P70S6K (3 nM, T412E mutant, Millipore) was mixed with 24 μM ATP in an assay buffer containing 100 mM Hepes (pH 7.5), 5 mM MgCl2, 1 mM DTT, 0.015% Brij and 1 μM of the substrate peptide FITC-AHA-AKRRRLSSLRA-OH (derived from the S6 ribosomal protein sequence, FITC=fluorescein isothiocyanate, AHA=6-aminohexanoic acid). The reaction was incubated for 90 min at 25° C., before the addition of 10 mM EDTA to stop the reaction. The proportion of substrate and product (phosphorylated) peptide was analysed on a Caliper Life Sciences Lab Chip 3000, using a pressure of −1.4 psi, and upstream and downstream voltages of −3000 and −700 respectively. Product peaks were resolved before substrate peaks on the resulting chromatograms.

[2] = molecular target: T2, His-AKT (Full Length) (Homo sapiens, UniProt P31749); experiment: AKT enzyme assay; assay type: biochemical; details: 160 uM ATP, 90 min at 25 C, off-chip mobility shift (Caliper)
T2 construct: His-AKT (Full Length); His; purchased Invitrogen P2999
T2 sequence (P31749 whole entry): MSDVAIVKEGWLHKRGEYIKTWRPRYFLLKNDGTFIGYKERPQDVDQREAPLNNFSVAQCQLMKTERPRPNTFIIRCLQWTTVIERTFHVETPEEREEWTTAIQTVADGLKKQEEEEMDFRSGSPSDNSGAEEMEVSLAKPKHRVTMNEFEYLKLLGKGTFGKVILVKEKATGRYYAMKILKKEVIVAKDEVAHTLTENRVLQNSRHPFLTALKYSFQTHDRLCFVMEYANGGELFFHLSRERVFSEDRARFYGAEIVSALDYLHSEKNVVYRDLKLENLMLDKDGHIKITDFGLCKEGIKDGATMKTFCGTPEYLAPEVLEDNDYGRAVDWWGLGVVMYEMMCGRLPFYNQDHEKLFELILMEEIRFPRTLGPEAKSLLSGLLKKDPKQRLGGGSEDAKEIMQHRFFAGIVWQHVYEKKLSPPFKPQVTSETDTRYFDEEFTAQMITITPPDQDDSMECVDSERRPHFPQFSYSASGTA
Procedure: A TTP Mosquito liquid handling instrument was used to place 125 nl of the appropriate concentration of inhibitor in 100% DMSO (for a dose response curve calculation) into each well of a 384-well plate. To this reaction components were added to a final volume of 12.5 μl: • 0.1 ng/μ1 His-AKT (Full Length), (Invitrogen, Part # P2999, Lot #641228C). • 160 uM ATP (Fluka, 02055) • 1 mM DTT (Sigma, D0632) • 1 mM MgCl2 (Sigma, M1028) • 1 μM substrate peptide (sequence FITC-AHA-GRPRTSSFAEG-NH2), synthesized by Tufts Peptide Synthesis service. • 100 mM HEPES pH 7.5 (Calbiochem, 391338) • 0.015% Brij-35 (Sigma, B4184)
The reaction was incubated for 90 min at 25 C, and then stopped by the addition of 70 μl of Stop buffer (100 mM HEPES pH 7.5, 0.015% Brij-35, 10 mM EDTA (Sigma, E7889)).
The plate was read on a Caliper LC 3000 in an Off-Chip mobility shift assay format, using the following parameters for a 12-sipper chip: screening pressure—2.3 psi, upstream voltage—500, and downstream voltage—3000. These conditions cause unphosphorylated substrate and phosphorylated product peptide to resolve as separate peaks allowing direct measurement of percentage of conversion of substrate to product. The percent conversion was plotted against concentration of inhibitor to produce a sigmoidal dose response curve, from which an IC50 was calculated.

T1 sequence (P23443 whole entry T412E): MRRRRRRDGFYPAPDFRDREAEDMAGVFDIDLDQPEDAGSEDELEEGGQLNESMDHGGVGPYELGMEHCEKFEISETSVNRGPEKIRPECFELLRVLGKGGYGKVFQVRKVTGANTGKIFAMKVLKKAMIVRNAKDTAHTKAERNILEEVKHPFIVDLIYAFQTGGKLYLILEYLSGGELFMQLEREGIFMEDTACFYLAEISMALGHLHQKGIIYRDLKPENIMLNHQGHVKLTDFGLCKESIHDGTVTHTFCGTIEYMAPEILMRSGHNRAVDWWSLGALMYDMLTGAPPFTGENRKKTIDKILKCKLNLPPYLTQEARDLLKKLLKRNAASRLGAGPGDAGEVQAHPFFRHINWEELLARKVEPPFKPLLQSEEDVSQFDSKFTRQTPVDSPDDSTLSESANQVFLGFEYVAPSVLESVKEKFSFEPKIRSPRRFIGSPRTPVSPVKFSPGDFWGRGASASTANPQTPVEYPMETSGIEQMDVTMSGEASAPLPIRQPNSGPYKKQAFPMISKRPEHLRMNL

| IC50 [1] [nM] | IC50 [2] [nM] | Structure (SMILES) |
| --- | --- | --- |
| 3 to 15 | < 3 | CC(C)c1cc(-c2cn(CCN3CCC3)c(C3CCN(c4ncnc(N)c4C4CCC4)CC3)n2)ccn1 [Compound 11, 6-{4-[1-(2-Azetidin-1-yl-ethyl)-4-(2-isopropyl-pyridin-4-yl)-1H-imidazol-2-yl]-piperidin-1-yl}-5-cyclobutyl-pyrimidin-4-ylamine] |
| 3 to 15 | > 15 | CC(C)c1cc(-c2cn(CCN3CCC3)c(C3CCN(c4ncnc(N)c4-c4ccncc4)CC3)n2)ccn1 [Compound 13, 6-{4-[1-(2-Azetidin-1-yl-ethyl)-4-(2-isopropyl-pyridin-4-yl)-1H-imidazol-2-yl}-piperidin-1-yl]-5-Pyridin-4-yl-pyrimidin-4-ylamine] |
| < 3 | 3 to 15 | CN(C)CCn1cc(-c2ccc(F)c(C(F)(F)F)c2)nc1C1CCN(c2ncnc(N)c2Cl)CC1 [Compound 23] |
| < 3 | 3 to 15 | CC(C)c1c(N)ncnc1N1CCC(c2nc(-c3ccnc(C(F)(F)F)c3)cn2CCN2CCC2)CC1 [Compound 5, 6-{4-[1-(2-Azetidin-1-yl-ethyl)-4-(2-trifluoromethyl-pyridin-4-yl)-1H-imidazol-2-yl]-piperidin-1-yl}-5-isopropyl-pyrimidin-4-ylamine] |
| 3 to 15 | 3 to 15 | Cc1cc(-c2cn(CCN3CCC3)c(C3CCN(c4ncnc(N)c4-c4ccncc4)CC3)n2)ccc1F [Compound 8, 6-{4-[1-(2-Azetidin-1-yl-ethyl)-4-(4-fluoro-3-methyl-phenyl)-1H-imidazol-2-yl]-piperidin-1-yl}-5-pyridin-4-yl-pyrimidin-4-ylamine] |
| 3 to 15 | 3 to 15 | Cc1cc(-c2cn(CCN3CCC3)c(C3CCN(c4ncnc(N)c4-c4ccn[nH]4)CC3)n2)ccc1F [Compound 7, 6-{4-[1-(2-Azetidin-1-yl-ethyl)-4-(4-fluoro-3-methyl-phenyl)-1H-imidazol-2-yl]-piperidin-1-yl}-5-(2H-pyrazol-3-yl)-pyrimidin-4-ylamine] |
| 3 to 15 | 3 to 15 | Cc1cc(-c2cn(CCN3CCC3)c(C3CCN(c4ncnc(N)c4-c4cccnc4)CC3)n2)ccc1F [Compound 9, 6-{4-[1-(2-Azetidin-1-yl-ethyl)-4-(4-fluoro-3-methyl-phenyl)-1H-imidazol-2-yl]-piperidin-1-yl}-5-pyridin-3-yl-pyrimidin-4-ylamine] |
| < 3 | < 3 | CN(C)CCn1cc(-c2ccnc(C(F)(F)F)c2)nc1C1CCN(c2ncnc(N)c2Br)CC1 [Compound 25] |
| < 3 | 3 to 15 | Cc1cc(-c2cn(CCNCCCCl)c(C3CCN(c4ncnc(N)c4C(C)C)CC3)n2)ccc1F [Compound 32, 6-{4-[1-[2-(3-Chloro-propylamino)-ethyl]-4-(4-fluoro-3-methyl-phenyl)-1H-imidazol-2-yl]-piperidin-1-yl}-5-isopropyl-pyrimidin-4-ylamine] |
| 3 to 15 | > 15 | CCc1c(N)ncnc1N1CCC(c2nc(-c3ccnc(C(F)(F)F)c3)cn2CCN(C)C)CC1 [Compound 27] |
| 3 to 15 | 3 to 15 | CC(C)Oc1c(N)ncnc1N1CCC(c2nc(-c3ccnc(C(C)C)c3)cn2CCN2CCC2)CC1 [Compound 12, 6-{4-[1-(2-Azetidin-1-yl-ethyl)-4-(2-isopropyl-pyridin-4-yl)-1H-imidazol-2-yl]-piperidin-1-yl}-5-isopropoxy-pyrimidin-4-ylamine] |
| < 3 | < 3 | Cc1cc(-c2cn(CCN3CCC3)c(C3CCN(c4ncnc(N)c4Cl)CC3)n2)ccc1F [Compound 2, 6-{4-[1-(2-Azetidin-1-yl-ethyl)-4-(4-fluoro-3-methyl-phenyl)-1H-imidazol-2-yl]-piperidin-1-yl}-5-chloro-pyrimidin-4-ylamine] |
| < 3 | > 15 | CC(C)c1cc(-c2cn(CCN3CCC3)c(C3CCN(c4ncnc(N)c4-c4ccccc4)CC3)n2)ccn1 [Compound 18, 6-{4-[1-(2-Azetidin-1-yl-ethyl)-4-(2-isopropyl-pyridin-4-yl)-1H-imidazol-2-yl]-piperidin-1-yl}-5-phenyl-pyrimidin-4-ylamine] |
| < 3 | 3 to 15 | CN(C)CCn1cc(-c2ccnc(C(F)(F)F)c2)nc1C1CCN(c2ncnc(N)c2Cl)CC1 [Compound 24] |
| < 3 | < 3 | Cc1cc(-c2cn(CCN3CCC3)c(C3CCN(c4ncnc(N)c4C4CC4)CC3)n2)ccc1F [Compound 16, 6-{4-[1-(2-Azetidin-1-yl-ethyl)-4-(4-fluoro-3-methyl-phenyl)-1H-imidazol-2-yl]-piperidin-1-yl}-5-cyclopropyl-pyrimidin-4-ylamine] |
| 3 to 15 | 3 to 15 | CC(C)c1cc(-c2cn(CCN3CCC3)c(C3CCN(c4ncnc(N)c4C(C)C)CC3)n2)ccn1 [Compound 3, 6-{4-[1-(2-Azetidin-1-yl-ethyl)-4-(2-isopropyl-pyridin-4-yl)-1H-imidazol-2-yl]-piperidin-1-yl}-5-isopropyl-pyrimidin-4-ylamine] |
| 3 to 15 | 3 to 15 | CC(C)c1cc(-c2cn(CCN3CCC3)c(C3CCN(c4ncnc(N)c4OCC(F)(F)F)CC3)n2)ccn1 [Compound 14, 6-{4-[1-(2-Azetidin-1-yl-ethyl)-4-(2-isopropyl-pyridin-4-yl)-1H-imidazol-2-yl}-piperidin-1-yl]-5-(2,2,2-trifluoro-ethoxy)-Pyrimidin-4-ylamine] |
| 3 to 15 | 3 to 15 | CCOc1c(N)ncnc1N1CCC(c2nc(-c3ccnc(C(F)(F)F)c3)cn2CCN(C)C)CC1 [Compound 26] |
| < 3 | 3 to 15 | CCOc1c(N)ncnc1N1CCC(c2nc(-c3ccc(F)c(Cl)c3)cn2CCN(C)C)CC1 [Compound 20] |
| > 15 | > 15 | CN(C)CCn1cc(-c2ccnc(C(F)(F)F)c2)nc1C1CCN(c2ncnc(N)c2C(N)=O)CC1 [Compound 30] |
| 3 to 15 | 3 to 15 | CCOc1c(N)ncnc1N1CCC(c2nc(-c3ccnc(C(C)C)c3)cn2CCN2CCC2)CC1 [Compound 10, 6-{4-[1-(2-Azetidin-1-yl-ethyl)-4-(2-isopropyl-pyridin-4-yl)-1H-imidazol-2-yl]-piperidin-1-yl}-5-ethoxy-pyrimidin-4-ylamine] |
| 3 to 15 | 3 to 15 | Cc1cc(-c2cn(CC3CN(C)C3)c(C3CCN(c4ncnc(N)c4Cl)CC3)n2)ccc1F [Compound 6, 5-Chloro-6-{4-[4-(4-fluoro-3-methyl-phenyl)-1-(1-methyl-azetidin-3-ylmethyl)-1H-imidazol-2-yl]-piperidin-1-yl}-pyrimidin-4-ylamine] |
| 3 to 15 | > 15 | CC(C)c1cc(-c2cn(CCN3CCC3)c(C3CCN(c4ncnc(N)c4-c4cccnc4)CC3)n2)ccn1 [Compound 19, 6-{4-[1-(2-Azetidin-1-yl-ethyl)-4-(2-isopropyl-pyridin-4-yl)-1H-imidazol-2-yl]-piperidin-1-yl}-5-Pyridin-3-yl-pyrimidin-4-ylamine] |
| < 3 | < 3 | Cc1cc(-c2cn(CCN(C)C)c(C3CCN(c4ncnc(N)c4Cl)CC3)n2)ccc1F [Compound 22] |
| < 3 | < 3 | Cc1cc(-c2cn(CCN(C)C)c(C3CCN(c4ncnc(N)c4Br)CC3)n2)ccc1F [Compound 21] |

— patent US9434714B2, “Pyrimidine imidazole amines as modulators of kinase activity” (Merck Patent GmbH, priority 2014, dated 2016)
